# Columns and labels:
# [1] = molecular target: T1, hTLR7 (Homo sapiens, UniProt Q9NYK1); assay: Human TLR7 Reporter Assay; assay type: cell-based; conditions: HEK-Blue hTLR7 cells, 16 hours, normalized to CL097 (6 μM) and DMSO
# T1 construct: host or cells: HEK-Blue hTLR7 cells (HEK293-derived, own knowledge)
# T1 sequence (Q9NYK1 27-1049): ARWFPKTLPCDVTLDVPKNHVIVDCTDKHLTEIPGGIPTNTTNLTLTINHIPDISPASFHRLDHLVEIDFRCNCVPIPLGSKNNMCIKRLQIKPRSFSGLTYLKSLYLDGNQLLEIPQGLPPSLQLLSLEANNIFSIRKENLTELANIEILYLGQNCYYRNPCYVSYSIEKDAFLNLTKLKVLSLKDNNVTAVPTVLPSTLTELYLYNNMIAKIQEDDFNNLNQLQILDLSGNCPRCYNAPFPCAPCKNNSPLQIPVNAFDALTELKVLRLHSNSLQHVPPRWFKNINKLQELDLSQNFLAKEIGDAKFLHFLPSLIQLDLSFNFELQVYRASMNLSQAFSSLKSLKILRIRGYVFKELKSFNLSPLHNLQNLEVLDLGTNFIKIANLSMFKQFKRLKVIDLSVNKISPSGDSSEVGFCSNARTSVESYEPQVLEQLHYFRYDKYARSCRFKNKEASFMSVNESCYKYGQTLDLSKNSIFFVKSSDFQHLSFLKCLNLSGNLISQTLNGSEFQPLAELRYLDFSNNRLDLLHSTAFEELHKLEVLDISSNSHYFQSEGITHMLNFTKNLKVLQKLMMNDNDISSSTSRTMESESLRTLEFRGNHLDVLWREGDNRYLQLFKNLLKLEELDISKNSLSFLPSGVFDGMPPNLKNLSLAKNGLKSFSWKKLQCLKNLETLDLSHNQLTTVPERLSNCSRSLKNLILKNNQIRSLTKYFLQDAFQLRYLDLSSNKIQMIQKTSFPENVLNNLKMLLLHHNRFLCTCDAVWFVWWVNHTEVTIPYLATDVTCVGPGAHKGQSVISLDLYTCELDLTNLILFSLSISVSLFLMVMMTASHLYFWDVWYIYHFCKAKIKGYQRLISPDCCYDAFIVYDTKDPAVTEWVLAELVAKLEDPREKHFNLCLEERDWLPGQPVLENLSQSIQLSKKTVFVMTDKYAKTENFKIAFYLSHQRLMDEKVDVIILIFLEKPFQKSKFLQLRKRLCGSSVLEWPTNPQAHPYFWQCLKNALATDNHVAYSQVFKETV
# Procedure, shortened: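 HEK-Blue hTLR7 reporter cells (20,000/well) incubated 16 h at 37 °C with 10-point 3-fold compound dilutions; SEAP read by absorbance at 620 nm. Effects normalized between CL097 (6 μM) and DMSO controls; EC50 from 4-parameter fit.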
# [2] = molecular target: T2, hTLR8 (Homo sapiens, UniProt Q9NR97); assay: Human TLR8 Reporter Assay; assay type: cell-based; conditions: HEK-Blue hTLR8 cells, 16 hours, normalized to tl8-506 (1 μM) and DMSO
# T2 construct: host or cells: HEK-Blue hTLR8 cells (HEK293-derived, own knowledge)
# T2 sequence (Q9NR97 27-1041): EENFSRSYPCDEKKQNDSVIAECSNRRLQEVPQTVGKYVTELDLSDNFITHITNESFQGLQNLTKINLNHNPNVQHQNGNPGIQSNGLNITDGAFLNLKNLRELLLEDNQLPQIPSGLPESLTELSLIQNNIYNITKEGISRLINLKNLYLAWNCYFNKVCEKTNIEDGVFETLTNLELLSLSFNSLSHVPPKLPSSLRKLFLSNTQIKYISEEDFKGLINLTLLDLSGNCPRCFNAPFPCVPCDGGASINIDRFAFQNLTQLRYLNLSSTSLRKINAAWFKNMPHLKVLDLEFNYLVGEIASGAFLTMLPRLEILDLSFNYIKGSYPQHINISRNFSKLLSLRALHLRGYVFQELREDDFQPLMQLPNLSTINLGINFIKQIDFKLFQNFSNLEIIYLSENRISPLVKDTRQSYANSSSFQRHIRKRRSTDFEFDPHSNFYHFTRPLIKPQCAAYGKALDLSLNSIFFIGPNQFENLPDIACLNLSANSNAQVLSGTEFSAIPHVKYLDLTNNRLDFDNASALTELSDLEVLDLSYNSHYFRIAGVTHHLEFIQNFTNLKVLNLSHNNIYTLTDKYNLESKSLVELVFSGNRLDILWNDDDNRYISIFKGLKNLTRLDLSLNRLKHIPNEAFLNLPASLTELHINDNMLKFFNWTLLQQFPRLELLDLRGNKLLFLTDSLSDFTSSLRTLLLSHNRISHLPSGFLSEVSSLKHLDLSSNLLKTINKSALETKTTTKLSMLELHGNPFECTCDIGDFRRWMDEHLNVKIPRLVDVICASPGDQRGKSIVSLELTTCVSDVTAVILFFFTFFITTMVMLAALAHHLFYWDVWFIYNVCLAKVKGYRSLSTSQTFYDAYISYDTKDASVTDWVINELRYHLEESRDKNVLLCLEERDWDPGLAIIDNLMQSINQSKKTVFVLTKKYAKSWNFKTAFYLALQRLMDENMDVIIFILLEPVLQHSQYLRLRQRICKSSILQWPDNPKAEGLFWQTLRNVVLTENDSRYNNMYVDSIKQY
# Procedure, shortened: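 HEK-Blue hTLR8 cells (20,000/well) incubated 16 h at 37 °C with 10-point 3-fold compound dilutions in HEK-Blue Detection medium; reporter read as absorbance at 620 nm. Effects normalized between DMSO and tl8-506 (1 μM); EC50 from 4-parameter fit.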
Compound,EC50 [1],EC50 [2]
C=CCN(C)Cc1cnc(Cn2cc3nc(N)nc(N[C@H](CO)CCC)c3n2)c(OC)c1 [Compound 185],382 nM,103 nM
CCCC(Nc1nc(N)nc2cn(Cc3c(OC)cccc3OC)nc12)C(F)F (stereo not drawn) [Compound 135],343 nM,> 9980 nM
CCCC(Nc1nc(N)nc2cn(Cc3c(OC)cccc3OC)nc12)C(F)(F)F (stereo not drawn) [Compound 126],707 nM,> 9980 nM
COc1cccc(OC)c1Cn1cc2nc(N)nc(NC(C)C)c2n1 [Compound 27],1120 nM,4380 nM
CCC[C@@H](CO)Nc1nc(N)nc2cn(Cc3c(OC)cc(C(CN)N(C)CCC)cc3OC)nc12 (stereo partly drawn) [Compound 223],4840 nM,1800 nM
CCCC(Nc1nc(N)nc2cn(Cc3c(OC)cccc3OC)nc12)C(F)F (stereo not drawn) [Compound 136],174 nM,1340 nM
COc1cccc(OC)c1Cn1cc2nc(N)nc(NCC(C)O)c2n1 (stereo not drawn) [Compound 49],7290 nM,> 29900 nM
CCCCNc1nc(N)nc2cn(Cc3c(OC)cc(CN4CCN(C(=O)C5CCC(CN6C(=O)CC(SC[C@H](N)C(=O)O)C6=O)CC5)CC4)cc3OC)nc12 (stereo partly drawn) [Compound 89],2620 nM,24600 nM

# Further lines, results first:
EC50 [1],EC50 [2],Compound
249 nM,144 nM,CCCCNc1nc(N)nc2cn(Cc3ccc(CN4CC(CN)C4)cc3OC)nc12 [Compound 118]
243 nM,1490 nM,CCCCNc1nc(N)nc2cn(Cc3ccc(CN4CCN(C(=O)C5CCC(CN6C(=O)C=CC6=O)CC5)CC4)cc3OC)nc12 (stereo not drawn) [Compound 69]
2270 nM,11400 nM,CCCCNc1nc(N)nc2cn(Cc3ccc(C(N)CCN)cc3OC)nc12 (stereo not drawn) [Compound 229]
490 nM,2320 nM,CCCCNc1nc(N)nc2cn(Cc3ncoc3C)nc12 [Compound 121]
1090 nM,4210 nM,CCCCNc1nc(N)nc2cn(Cc3ccccc3)nc12 [Compound 2]
476 nM,809 nM,CCCCNc1nc(N)nc2cn(Cc3ncc(CNC)cc3OC)nc12 [Compound 163]
32.3 nM,456 nM,CCCCNc1nc(N)nc2cn(Cc3ccc(C(C)N(C)CCC)cc3OC)nc12 (stereo not drawn) [Compound 233]
2770 nM,28200 nM,CCC[C@H](CO)Nc1nc(N)nc2cn(Cc3ccccc3OC)nc12 [Compound 29]
843 nM,> 29900 nM,COc1cccc(OC)c1Cn1cc2nc(N)nc(NCC(C)C)c2n1 [Compound 50]
717 nM,942 nM,CCCCNc1nc(N)nc2cn(Cc3ccc(CCN)cc3OC)nc12 [Compound 139]
171 nM,1500 nM,CCCCNc1nc(N)nc2cn(Cc3scnc3C)nc12 [Compound 181]
228 nM,345 nM,CCCCNc1nc(N)nc2cn(Cc3ccc(N4CCNCC4)cc3OC)nc12 [Compound 58]
292 nM,2040 nM,CCCCNc1nc(N)nc2cn(Cc3ccc(CN4C(=O)C=CC4=O)cc3OC)nc12 [Compound 104]
